# Source: patent publication US10456379B2, “Imidazole-based antimicrobial agents” (priority 2014, dated 2019)
# System: Staphylococcus aureus MRSA (COL)
# Assay: Broth microdilution MIC assay, Staphylococcus aureus MRSA (COL)
# Type: cell-based
# Settings: MIC class score, MIC100, broth microdilution, COL strain
row,Structure (SMILES),Antibacterial activity Staphylococcus aureus (MRSA)
1,Cc1[nH]c(-c2cc(C)n(-c3cccc(C(F)(F)F)c3)c2C)nc1-c1ccccc1 [compound 36],2 (MIC100 of 11-20 μg/ml)
2,Fc1ccc(-c2ccc(-c3nc4ccccc4[nH]3)o2)c(F)c1 [compound 122],in- active
3,Cc1nc(-c2ccc(-c3ccccc3OC(F)(F)F)o2)[nH]c1-c1ccc(Br)cc1 [compound 29],2 (MIC100 of 11-20 μg/ml)
4,Cc1nc(-c2ccc(-c3ccc(F)cc3F)o2)[nH]c1-c1ccc(O)cc1 [compound 80],2 (MIC100 of 11-20 μg/ml)
5,CCCc1nc(-c2ccc(-c3ccc(C(F)(F)F)cc3)o2)[nH]c1C [compound 104],3 (MIC100 of 3-10 μg/ml)
6,Fc1ccc(-c2ccc(-c3nc4ccccc4[nH]3)o2)cc1 [compound 121],in- active
7,CCCc1nc(-c2coc(-c3ccccc3C(F)(F)F)c2)[nH]c1C [Compound 112],3 (MIC100 of 3-10 μg/ml)
8,CCCc1[nH]c(-c2ccc(-c3ccc(O)cc3C(F)(F)F)o2)nc1C [compound 110],3 (MIC100 of 3-10 μg/ml)

# Same assay, conditions: Staphylococcus aureus, MRSA, read-out: Antibacterial activity, MRSA (Staphylococcus aureus MRSA), MIC class
row,Structure (SMILES),MIC [µg/mL]
1,Cc1nc(-c2ccc(-c3cccc(Cl)c3)o2)[nH]c1-c1ccccc1 [compound 4],11 to 20
2,Cc1[nH]c(-c2ccc(-c3ccc(OC(F)(F)F)c(Cl)c3)o2)nc1-c1ccc(Cl)cc1 [compound 50],11 to 20

# System: Streptococcus pneumoniae (Chester, ATCC49619)
# Assay: Broth microdilution MIC assay, Streptococcus pneumoniae
# Type: cell-based
# Settings: MIC class score, MIC100, broth microdilution
row,Structure (SMILES),Antibacterial activity Streptococcus pneumoniae
1,FC(F)(F)c1ccccc1-c1ccc(-c2ncc(-c3ccccc3)[nH]2)o1 [compound 75],3 (MIC100 of 2-5 μg/ml)
2,Cc1nc(-c2ccc(-c3ccc(O)cc3)o2)[nH]c1-c1ccccc1 [compound 150],2 (MIC100 of 6-10 μg/ml)
3,Cc1nc(-c2ccc(-c3cccc(O)c3)o2)[nH]c1-c1ccccc1 [compound 145],2 (MIC100 of 6-10 μg/ml)
4,Cc1nc(-c2ccc(-c3ccccc3C(F)(F)F)o2)[nH]c1-c1cccc(Cl)c1 [compound 22],3 (MIC100 of 2-5 μg/ml)
5,Cc1[nH]c(-c2ccc(-c3ccc(OC(F)(F)F)c(Cl)c3)o2)nc1-c1ccc(Cl)cc1 [compound 50],3 (MIC100 of 2-5 μg/ml)
6,Fc1ccc(-c2ccc(-c3nc4ccccc4[nH]3)o2)c(F)c1 [compound 122],in- active
7,Cc1nc(-c2ccc(-c3ccccc3OC(F)(F)F)o2)[nH]c1-c1ccc(Br)cc1 [compound 29],3 (MIC100 of 2-5 μg/ml)
8,Cc1nc(-c2ccc(-c3ccccc3F)o2)[nH]c1-c1ccc(O)cc1 [compound 77],3 (MIC100 of 2-5 μg/ml)
9,Cc1[nH]c(-c2ccc(-c3ccc(C(F)(F)F)cc3)s2)nc1-c1ccccc1 [compound 46],3 (MIC100 of 2-5 μg/ml)
10,Fc1ccc(-c2ccc(-c3nc4ccccc4[nH]3)o2)cc1 [compound 121],in- active

# Same assay, conditions: Streptococcus pneumoniae, ATCC49619; read-out: Antibacterial activity, SP (Streptococcus pneumoniae), MIC class
row,Structure (SMILES),MIC [µg/mL]
1,Cc1nc(-c2ccc(-c3cccc(Cl)c3)o2)[nH]c1-c1ccccc1 [compound 4],< 1
2,Cc1[nH]c(-c2cc(C)n(-c3cccc(C(F)(F)F)c3)c2C)nc1-c1ccccc1 [compound 36],2 to 5
3,Cc1nc(-c2ccc(-c3ccccc3C(F)(F)F)o2)[nH]c1-c1cccc(Cl)c1 [compound 22],2 to 5
4,FC(F)(F)c1ccccc1-c1ccc(-c2nc(Cl)c(-c3ccccc3)[nH]2)o1 [compound 65],< 1
5,Cc1[nH]c(-c2ccc(-c3ccc(OC(F)(F)F)c(Cl)c3)o2)nc1-c1ccc(Cl)cc1 [compound 50],2 to 5
6,Cc1nc(-c2ccc(-c3ccccc3OC(F)(F)F)o2)[nH]c1-c1ccc(Br)cc1 [compound 29],2 to 5

# System: Staphylococcus aureus MSSA (Newman)
# Assay: Broth microdilution MIC assay, Staphylococcus aureus MSSA (Newman)
# Type: cell-based
# Settings: MIC class score, MIC100, broth microdilution, Newman strain
row,Structure (SMILES),Antibacterial activity Staphylococcus aureus (MSSA)
1,Cc1nc(-c2ccc(-c3ccccc3C(F)(F)F)o2)[nH]c1-c1cccc(Cl)c1 [compound 22],2 (MIC100 of 11-20 μg/ml)
2,FC(F)(F)c1ccccc1-c1ccc(-c2nc(Cl)c(-c3ccccc3)[nH]2)o1 [compound 65],2 (MIC100 of 11-20 μg/ml)
3,Cc1nc(-c2ccc(-c3ccccc3F)o2)[nH]c1-c1ccc(O)cc1 [compound 77],3 (MIC100 of 3-10 μg/ml)
4,Cc1nc(-c2ccc(-c3ccc(O)cc3F)o2)[nH]c1-c1ccc(O)cc1 [compound 120],2 (MIC100 of 11-20 μg/ml)
5,Cc1[nH]c(-c2ccc(-c3ccc(C(F)(F)F)cc3)s2)nc1-c1ccccc1 [compound 46],2 (MIC100 of 11-20 μg/ml)

# Same assay, conditions: Staphylococcus aureus, read-out: Antibacterial activity Staphylococcus aureus (MSSA)
row,Structure (SMILES),MIC [µg/mL]
1,FC(F)(F)c1ccccc1-c1ccc(-c2ncc(-c3ccccc3)[nH]2)o1 [compound 75],11 to 20
2,Cc1nc(-c2ccc(-c3ccc(O)cc3)o2)[nH]c1-c1ccccc1 [compound 150],11 to 20
3,Cc1nc(-c2ccc(-c3cccc(O)c3)o2)[nH]c1-c1ccccc1 [compound 145],11 to 20
4,Cc1nc(-c2ccc(-c3ccccc3O)o2)[nH]c1-c1ccccc1 [compound 149],11 to 20

# Same assay, conditions: Staphylococcus aureus; read-out: Antibacterial activity, MSSA (Staphylococcus aureus MSSA), MIC class
row,Structure (SMILES),MIC [µg/mL]
1,Cc1nc(-c2ccc(-c3ccccc3C(F)(F)F)o2)[nH]c1-c1cccc(Cl)c1 [compound 22],11 to 20
2,FC(F)(F)c1ccccc1-c1ccc(-c2nc(Cl)c(-c3ccccc3)[nH]2)o1 [compound 65],11 to 20
3,Cc1[nH]c(-c2ccc(-c3ccc(C(F)(F)F)cc3)s2)nc1-c1ccccc1 [compound 46],11 to 20
